Activity calls are given as the source filed them. The calls are words filed in the database; no cut-off is given here.
What was measured:
[1] = Volume of distribution in colon of ICR mouse at 15 mg/kg, IG measured for 12 hrs by LC-MS/MS analysis; type: ADME, organism-based; conditions: in vivo, po
[2] = system: Mus musculus; assay: Anti-colitis activity in ICR mouse model assessed as reversal of DSS-induced colon shortening administered intragastrically for 9 days consecutively; type: functional, organism-based; conditions: route ig, time 9.0 day
[3] = Half life in ICR mouse at 15 mg/kg, IG measured for 12 hrs by LC-MS/MS analysis; type: ADME, organism-based; conditions: ICR, in vivo, po
[4] = AUC (0 to t) in colon of ICR mouse at 15 mg/kg, IG measured for 12 hrs by LC-MS/MS analysis; type: ADME, organism-based; conditions: po
[5] = system: THP-1; assay: Anti-inflammatory activity in human THP-1 cells assessed as decrease in LPS-induced NLRP3 level at 1 to 10 uM pretreated for 1 hr followed by LPS/ATP treatment for 6 hrs by Western blot analysis; type: functional, cell-based; conditions: dose 1-10 µM, time 7.0 hrs
[6] = system: THP-1; assay: cells; conditions: Homo sapiens, THP-1, 24 h
Description: Cytotoxicity against human THP-1 cells assessed as inhibition of cell viability incubated for 24 hrs by CCK8 assay

[7] = system: THP-1; assay: Anti-inflammatory activity in human THP-1 cells assessed as decrease in LPS-induced TNF-alpha level at 10 uM pretreated for 1 hr followed by LPS treatment for 24 hrs in presence of DADA by ELISA; type: functional, cell-based; conditions: time 25.0 hrs
[8] = system: Mus musculus; assay: Anti-colitis activity in ICR mouse model assessed as increase in DSS-reduced pyruvate level at 60 mg/kg, IG treated for 8 days consecutively in presence of DADA; type: functional, organism-based; conditions: time 8.0 day
[9] = system: Mus musculus; assay: Anti-colitis activity in ICR mouse model assessed as decrease in DSS-induced body weight loss at 15 to 60 mg/kg, IG treated for 9 days consecutively; type: functional, organism-based; conditions: dose 15-60 mg/kg, time 9.0 day
[10] = system: Mus musculus; assay: Anti-colitis activity in ICR mouse model assessed as decrease in DSS-induced inflammatory cell infiltration in colon tissue at 15 to 60 mg/kg, IG treated for 8 days consecutively by H and E staining based analysis; type: functional, organism-based; conditions: dose 15-60 mg/kg, time 8.0 day
[11] = Toxicity in ICR mouse assessed as change in liver index at 300 mg/kg, IG measured for 9 days; type: organism-based; conditions: in vivo, po, 216 h, time 9 day
[12] = Toxicity in ICR mouse assessed as change in lungs index at 300 mg/kg, IG measured for 9 days; type: organism-based; conditions: in vivo, po, 216 h, time 9 day
[13] = system: THP-1; assay: Anti-inflammatory activity in human THP-1 cells assessed as decrease in LPS-induced phosphorylated I-kappaB-alpha level pretreated for 1 hr followed by LPS treatment for 6 hrs by Western blot analysis; type: functional, cell-based; conditions: dose 1-10 µM, time 7.0 hrs
[14] = system: THP-1; assay: Anti-inflammatory activity in human THP-1 cells assessed as decrease in LPS-induced pro-IL-1beta level at 1 to 10 uM pretreated for 1 hr followed by LPS/ATP treatment for 6 hrs by Western blot analysis; type: functional, cell-based; conditions: dose 1-10 µM, time 7.0 hrs
[15] = system: THP-1; assay: Anti-inflammatory activity in human THP-1 cells assessed as decrease in LPS-induced P20 level at 1 to 10 uM pretreated for 1 hr followed by LPS/ATP treatment for 6 hrs by Western blot analysis; type: functional, cell-based; conditions: dose 1-10 µM, time 7.0 hrs
[16] = Toxicity in ICR mouse assessed as change in colon index at 300 mg/kg, IG measured for 9 days; type: organism-based; conditions: in vivo, po, 216 h, time 9 day
[17] = AUC (0 to t) in ICR mouse at 15 mg/kg, IG measured for 12 hrs by LC-MS/MS analysis; type: ADME, organism-based; conditions: in vivo, po
[18] = Toxicity in ICR mouse assessed as change in body weight at 300 mg/kg, IG measured for 9 days; type: organism-based; conditions: in vivo, po, 216 h, time 9 day
[19] = MRT (0 to t) in colon of ICR mouse at 15 mg/kg, IG measured for 12 hrs by LC-MS/MS analysis; type: ADME, organism-based; conditions: po
[20] = system: Mus musculus; assay: Anti-colitis activity in ICR mouse model assessed as decrease in DSS-induced inflammatory cell infiltration in colon tissue at 60 mg/kg, IG treated for 8 days consecutively in presence of DADA by H and E staining based analysis; type: functional, organism-based; conditions: time 8.0 day
[21] = system: THP-1; assay: Anti-inflammatory activity in human THP-1 cells assessed as decrease in LPS-induced IL-1beta level at 1 to 10 uM pretreated for 1 hr followed by LPS/ATP treatment for 6 hrs by Western blot analysis; type: functional, cell-based; conditions: dose 1-10 µM, time 7.0 hrs
[22] = system: THP-1; assay: Anti-inflammatory activity in human THP-1 cells assessed as decrease in LPS-induced TNF-alpha level pretreated for 1 hr followed by LPS treatment for 24 hrs by ELISA; type: functional, cell-based; conditions: dose 0.1-10 µM, time 25.0 hrs
[23] = system: Mus musculus; assay: Anti-colitis activity in ICR mouse model assessed as decrease in DSS-induced pyruvate carboxylase level at 60 mg/kg, IG treated for 8 days consecutively; type: functional, organism-based; conditions: time 8.0 day
[24] = system: Mus musculus; assay: Anti-colitis activity in ICR mouse model assessed as […] DSS-induced colon length at 60 mg/kg, IG treated for 8 days consecutively in presence of DADA; type: functional, organism-based; conditions: time 8.0 day
[25] = system: Mus musculus; assay: Anti-colitis activity in ICR mouse model assessed as reversal of DSS-induced splenomegaly at 15 to 60 mg/kg, IG treated for 9 days consecutively; type: functional, organism-based; conditions: dose 15-60 mg/kg, time 9.0 day
[26] = system: Mus musculus; assay: Anti-colitis activity in ICR mouse model assessed as decrease in DSS-induced apoptosis in colon tissue at 15 to 60 mg/kg, IG treated for 8 days consecutively by H and E staining based analysis; type: functional, organism-based; conditions: dose 15-60 mg/kg, time 8.0 day
[27] = Toxicity in ICR mouse assessed as change in heart index at 300 mg/kg, IG measured for 9 days; type: organism-based; conditions: in vivo, po, 216 h, time 9 day
[28] = system: THP-1; assay: Anti-inflammatory activity in human THP-1 cells assessed as decrease in LPS-induced phosphorylated p65 level pretreated for 1 hr followed by LPS treatment for 6 hrs by Western blot analysis; type: functional, cell-based; conditions: dose 1-10 µM, time 7.0 hrs
[29] = system: Mus musculus; assay: Anti-colitis activity in ICR mouse model assessed as decrease in DSS-induced DAI score at 15 to 60 mg/kg, IG treated for 8 days consecutively; type: functional, organism-based; conditions: dose 15-60 mg/kg, time 8.0 day
[30] = system: Mus musculus; assay: Anti-colitis activity in ICR mouse model assessed as decrease in DSS-induced epithelial cell injury in colon tissue at 15 to 60 mg/kg, IG treated for 8 days consecutively by H and E staining based analysis; type: functional, organism-based; conditions: dose 15-60 mg/kg, time 8.0 day

Question: For `C=C(C)[C@@H]1CC[C@]2(C(=O)NCCCCCC(=O)OC)CC[C@]3(C)[C@H](CC[C@@H]4[C@@]5(C)CC[C@H](O[C@@H]6OC[C@H](O)[C@H](O)[C@H]6O[C@@H]6O[C@@H](C)[C@H](O)[C@@H](O)[C@H]6O)[C@@](C)(CO)[C@@H]5CC[C@]43C)[C@@H]12`, which Vd [1] is on record?
Answer: 97.34 L/kg

Question: And the Activity [2]?
Answer: Dose-Dependent Effect

Question: And the half-life [3]?
Answer: 2.46 h

Question: And the AUC(0-t) at 12 h [4]?
Answer: 3210 ng·h/mL

Question: What about the Activity [5] of the same compound?
Answer: Active

Question: And the IC50 [6]?
Answer: ≥ 80 µM

Question: What about the Activity [7] of the same compound?
Answer: inactive

Question: What about the Activity [8] of the same compound?
Answer: inactive

Question: And the Activity [9]?
Answer: Active

Question: And the Activity [10]?
Answer: Active

Question: What about the Activity [11] of the same compound?
Answer: Non-Toxic

Question: And the Activity [12]?
Answer: Non-Toxic

Question: What about the Activity [13] of the same compound?
Answer: Dose-Dependent Effect

Question: What about the Activity [14] of the same compound?
Answer: Active

Question: And the Activity [15]?
Answer: Active

Question: What about the Activity [16] of the same compound?
Answer: Non-Toxic

Question: And the AUCt [17]?
Answer: 108.09 ng·h/mL

Question: And the Activity [18]?
Answer: Non-Toxic

Question: What about the MRT last at 12 h [19] of the same compound?
Answer: 3.32 h

Question: What about the Activity [20] of the same compound?
Answer: inactive

Question: And the Activity [21]?
Answer: Active

Question: What about the Activity [22] of the same compound?
Answer: Dose-Dependent Effect

Question: And the Activity [23]?
Answer: Active

Question: And the Activity [24]?
Answer: inactive

Question: What about the Activity [25] of the same compound?
Answer: Active

Question: What about the Activity [26] of the same compound?
Answer: Active

Question: And the Activity [27]?
Answer: Non-Toxic

Question: And the Activity [28]?
Answer: Dose-Dependent Effect

Question: What about the Activity [29] of the same compound?
Answer: Active

Question: What about the Activity [30] of the same compound?
Answer: Active

Source: ChEMBL document CHEMBL5543173, “Discovery of a New Anti-Inflammatory Agent from Anemoside B4 Derivatives and Its Therapeutic Effect on Colitis by Targeting Pyruvate Carboxylase” (J Med Chem, 2024)
